Experimental data: paper PMC9069370, “Integrated Design of a Membrane‐Lytic Peptide‐Based Intravenous Nanotherapeutic Suppresses Triple‐Negative Breast Cancer” (Advanced Science, 2022)
Where two headings read alike, the source gives them in different places. Square brackets hold non-standard residues; d marks the D form. Peptide text beside a SMILES is read from it.

How the values were obtained:
U2OS = type: cell-based, human; details: 2D culture, MTT, 72 h incubation; library peptides n = 2; D-enantiomers and small molecules replicated six times; read-out: IC50 (µM) U2OS
[1] = ANTS/DPX liposome leakage assay; details: 0.5 mM vesicles, peptide 0-20 µM, 3 h incubation, lipid per peptide
How it was run: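 The value is the lipid-to-peptide ratio giving 50% ANTS/DPX release, with fluorescence (350/510 nm) read after 3 h and scaled to 10% Triton as full leakage. Peptides were titrated into 0.5 mM LUVs of POPC or 3POPC/1POPG (0.1 µm, free dye removed by gel filtration) in PBS at pH 7.4 or 4.8.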

[2] = Tryptophan fluorescence and circular dichroism binding to vesicles; details: binding to both POPC and POPG vesicles; 50 µM peptide, 10 mM phosphate buffer, pH 7.0
Procedure: 50 µM ACP peptides and varied concentrations (concentrations: 0, 25, 50, 100, 150, 200, 250, 500, 1250, and 2500 µM) of POPC or POPC:POPG (3:1 ratio) large unilamellar vesicles were prepared in 10 mM phosphate buffer (pH 7.0). The solutions were measured after 1 h of incubation. Excitation was fixed at 280 nm (slit 9 nm) and emission was collected from 300 to 450 nm (slit 9 nm). The spectra were recorded using Cytation 5 Cell Imaging Multi‐Mode Reader from BioTek and were averaged by three scans.
Extended Data Figure 9 | Peptide-lipid interactions. Conformational change of tryptophan fluorescence quenching of 50 µM DHK peptide with titrated a, POPC or b, POPG LUV concentration (0, 12.5, 25, 50, […]
POPC or d, POPG LUV against elevated temperature (20, 45, 70, and 95 °C). The black solid line represents peptide-only in buffer at 20 °C. All the experiments were performed in 10 mM phosphate buffer, pH 7.0.
(1 picture or pasted object on this page, not shown here)

HMLER‐shEcad [3] = assay: Resistance formation after prolonged drug exposure, 2D culture; type: cell-based, human; details: 2D HMLER‐shEcad after 28 days co‐incubation with 0.4 µM d‐DHK
Procedure: Cancer stem cells can survive treatment, gain resistance, and reseed tumors, presenting a major challenge for chemotherapy.^[ [2] ^] […] Drugs were added with medium every 3–4 days, maintaining smooth cell growth, and 125 000 cells were split into new T25 flasks with a total volume of 5 mL once per week.

human red blood cells = assay: Haemolysis (human red blood cells); type: cell-based; details: PBS, 37 °C, 1 h
Procedure: Fresh human red blood cells were obtained from Interstate Blood Bank, Inc., and thoroughly washed in PBS until the supernatant was clear. The peptide was serially diluted in PBS starting at a concentration of 200 µM. […] As a positive lysis control, 1% triton was used. […] After centrifugation, 10 µL of supernatant was transferred to 90 µL of ddH2O in a fresh 96‐well plate.

[4] = Tryptophan fluorescent binding assay; details: tryptophan fluorescence; 50 µM peptide, lipid titrated 0-5000 µM; phosphate buffered saline 1X, pH 7.4; values as lipid per peptide
How it was run: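 Peptides at 50 µM were incubated for 1 h with increasing amounts of 3:1 POPC:POPG unilamellar vesicles in 1X phosphate buffered saline, pH 7.4. Tryptophan emission (300–450 nm, excitation 280 nm) was recorded on a Cytation 5 multi-mode reader. The lipid concentration giving 50 % peptide binding was determined and reported as a lipid-to-peptide ratio.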

HMLER‐shEcad [5] = assay: cells; type: cell-based, human; details: 2D culture, MTT, 72 h incubation; library peptides average of two independent experiments (n = 2); D-enantiomers and small molecules replicated six times; read-out: IC50 (µM) HMLER-shEcad
Source text: (§1) […], and MCF-10A cells were maintained in MEGM with supplements and growth factors bovine pituitary extract, hydrocortisone, human epidermal growth factor, insulin, and gentamicin/amphotericin-B.

MCF‐10A = assay: cells; type: cell-based, human; details: non-cancerous cells; 2D culture, MTT, 72 h incubation; library peptides n = 2; D-enantiomers and small molecules replicated six times; read-out: IC50 (µM) MCF-10A
Source text: as §1

HMLER = assay: cells; type: cell-based, human; details: 2D culture, MTT, 72 h incubation; library peptides average of two independent experiments (n = 2); D-enantiomers and small molecules replicated six times; read-out: IC50 (µM) HMLER
Source text: as §1

HEK293T = assay: cells; type: cell-based, human; details: non-cancerous cells; 2D culture, MTT, 72 h incubation; library peptides n = 2; D-enantiomers and small molecules replicated six times; read-out: IC50 (µM) HEK293T
MCF‐10A mammospheres = assay: Mammosphere viability assay (TOX8); type: cell-based, human; details: 3D non‐tumorigenic mammospheres
various [6] = details: read-out: IC50 [µM], various; 2D and 3D tumorspheres; summary of Figures 2, 3 and 5
Source text: The final concentration of DMSO in each well was either 0.5% or 0% and this amount was present in the untreated control.

[7] = test system: HMLER‐shEcad tumorspheres; assay: cells; type: cell-based, human; details: 3D multicellular spheroids; reducing tumorsphere cell viability by 90%; read-out: IC90 against HMLER‐shEcad tumorspheres
MCF‐7 = details: 2D; ref [11], [19], [47]; cited from earlier work
Source text: (§2) Table 1 ACP activity comparison. Reported in vitro anticancer activity (IC50) of ACPs | column: IC50 [µM]

[8] = cited from earlier work
Source text: (§3) Table 1 ACP activity comparison. Reported in vitro anticancer activity (IC50) of ACPs | column: Assay and Notes

various [9] = details: 2D; ref [70]; cited from earlier work
Source text: as §2

HCT116 = details: 2D; ref [69]; cited from earlier work
Source text: as §2

A20, AT84, MRC‐5 = details: ref [22], [23], [57], [63]; cited from earlier work
Source text: as §2

A549 = details: 2D; ref [68]; cited from earlier work
Source text: as §2

tumor in mouse = details: dose: 25 mg kg^−1; ref [68]; cited from earlier work
Source text: as §3

[10] = PBS 1X pH 7.4, high ratio = more potent

For `CC(C)C[C@H](NC(=O)CN)C(=O)N[C@@H](CC(C)C)C(=O)N[C@@H](CC(=O)O)C(=O)N[C@@H](CC(C)C)C(=O)N[C@@H](CC(C)C)C(=O)N[C@@H](Cc1c[nH]cn1)C(=O)N[C@@H](CC(C)C)C(=O)N[C@@H](CC(C)C)C(=O)N[C@@H](CC(C)C)C(=O)N[C@@H](CCCCN)C(=O)N[C@@H](C)C(=O)N[C@@H](C)C(=O)NCC(=O)N[C@@H](Cc1c[nH]c2ccccc12)C(N)=O` [DHK] (H-GLLDLLHLLLKAAGW-NH2), the IC50 (U2OS) was 20.4 ± 2.05 µM, the “Peptide Concentration-induced 50 % ANTS/DPX leakage at pH 4.8 (L/P), 3POPC/1POPG Vesicle” value ([1]; HCl-adjusted PBS 1X pH 4.8) was 183 L/P and the “Peptide Concentration-induced 50 % ANTS/DPX leakage at pH 4.8 (L/P), POPC Vesicle” value ([1]; HCl-adjusted PBS 1X pH 4.8) was 47 L/P. For the same molecule, the “Peptide Concentration-induced 50 % ANTS/DPX leakage at pH 7.4 (L/P), 3POPC/1POPG Vesicle” value [1, 10] was 469 L/P, the “Peptide Concentration-induced 50 % ANTS/DPX leakage at pH 7.4 (L/P), POPC Vesicle” value [1, 10] was 747 L/P and the “∆G binding” value [2] was -8.8 ± 1.2 kcal/mol. For the same molecule, the “shift in IC50 after prolonged exposure to ACP” value (HMLER‐shEcad [3]) was “no shift in IC50”, the HC50 (human red blood cells; one value for DHK, d‐DHK and d‐EEK together) was 14 ± 5 µM and the “Lipid Concentration-induced 50% Peptide Binding (L/P), 3POPC/1POPG Vesicle” value [4] was 0.38 L/P. For the same molecule, the “Lipid Concentration-induced 50% Peptide Binding (L/P), POPC Vesicle” value [4] was 0.20 L/P, the IC50 (HMLER‐shEcad [5]) was 1.02 ± 0.12 µM and the IC50 (MCF‐10A) was 5.05 ± 1.34 µM. The IC50 (HMLER) was 1.75 ± 0.49 µM and the IC50 (HEK293T) was 7.3 ± 0.42 µM.

In the case of `CC(C)C[C@H](NC(=O)CN)C(=O)N[C@@H](CC(C)C)C(=O)N[C@@H](CCC(=O)O)C(=O)N[C@@H](CC(C)C)C(=O)N[C@@H](CC(C)C)C(=O)N[C@@H](CCC(=O)O)C(=O)N[C@@H](CC(C)C)C(=O)N[C@@H](CC(C)C)C(=O)N[C@@H](CC(C)C)C(=O)N[C@@H](CCCCN)C(=O)N[C@@H](C)C(=O)N[C@@H](C)C(=O)NCC(=O)N[C@@H](Cc1c[nH]c2ccccc12)C(N)=O` [EEK] (H-GLLELLELLLKAAGW-NH2), the “IC90 against MCF‐10A mammospheres” value (MCF‐10A mammospheres) is reported as 141 ± 11 µM, the IC50 (various [6]) is reported as 1 to 27 µM and the “human red blood cell lysis” value (human red blood cells) is reported as “only minimal human red blood cell lysis below 90 µM”. The IC50 (MCF‐10A) was greater than 200 µM and the IC90 [7] was 23 ± 3 µM.

For `CC(C)[C@H](NC(=O)[C@H](CCCCN)NC(=O)[C@@H](NC(=O)[C@H](CCCCN)NC(=O)[C@@H](NC(=O)[C@H](CCCCN)NC(=O)[C@@H](NC(=O)[C@@H]1CCCN1C(=O)[C@H]1CCCN1C(=O)[C@@H](NC(=O)[C@H](CCCCN)NC(=O)[C@@H](NC(=O)[C@H](CCCCN)NC(=O)[C@@H](NC(=O)[C@H](CCCCN)NC(=O)[C@@H](NC(=O)[C@@H](N)CCCCN)C(C)C)C(C)C)C(C)C)C(C)C)[C@@H](C)O)C(C)C)C(C)C)C(=O)N[C@@H](CCCCN)C(N)=O` [SVS‐1] (H-KVKVKVKV[dP]PTKVKVKVK-NH2; N-terminus and C-terminus assumed), the IC50 (MCF‐7) is given as 11 µM and the drug resistance note ([8]; ref [11], [19], [47]) is given as 2D; in vitro drug resistance was observed.

For Aurein 1.2, the IC50 (various [9]) is given as 10 to 100 µM.

In the case of LL37, the IC50 (HCT116) is listed as 40 µM and the toxicity note ([8]; ref [69]) is listed as 2D; Vascular toxicity.

In the case of LTX‐315, the IC50 (A20, AT84, MRC‐5) is listed as 8 to 34 µM.

For Magainin II, the IC50 (A549) is given as 45 µM and the “outcome in mouse xenograft model” value (tumor in mouse) is given as 2D and mouse xenograft model (dose: 25 mg kg^−1); The tumor in mouse was smaller and still growing in 40 days.
